Experimental data: ChEMBL document CHEMBL3351337, “Cytotoxic 1,5-diaryl-3-oxo-1,5-pentadienes: an assessment and comparison of membrane permeability using Caco-2 and MDCK monolayers” (Bioorg Med Chem Lett, 2014)
Activity calls are given as the source filed them. The rule behind the calls is not given here.

Key:
[1] = Apparent permeability from basolateral to apical side in MDCK cells at 50 uM over 2 hrs by isocratic reverse phase HPLC method; type: ADME, cell-based, Canis lupus familiaris; settings: dog
[2] = Apparent permeability from apical to basolateral side in human Caco2 cells at 50 uM over 2 hrs by isocratic reverse phase HPLC method; type: ADME, cell-based; settings: Caco-2
[3] = Efflux ratio, ratio of permeability from basolateral to apical side over apical to basolateral side in human Caco2 cells at 50 uM over 2 hrs by isocratic reverse phase HPLC method; type: ADME, cell-based; settings: Caco-2
MDCK [4] = experiment: (§1) Permeability ratio, ratio of permeability from basolateral to apical side over apical to basolateral side in MDCK cells at 50 uM over 2 hrs by isocratic reverse phase HPLC method; type: ADME, cell-based, Canis lupus familiaris; settings: dog, mdck, 2 h, 50 µM
[5] = Ratio of apparent permeability from apical to basolateral side in MDCK cells to apparent permeability from apical to basolateral side in human Caco2 cells; type: ADME, cell-based; settings: caco-2
Caco-2 = experiment: Increase in permeability of lucifer yellow dye across human Caco2 cells; type: functional, cell-based
[6] = Cytotoxicity against human Caco2 cells assessed as reduction in cell viability; type: cell-based; settings: Caco-2
[7] = Apparent permeability from basolateral to apical side in human Caco2 cells at 50 uM over 2 hrs by isocratic reverse phase HPLC method; type: ADME, cell-based; settings: Caco-2
MDCK [8] = experiment: Cytotoxicity against MDCK cells assessed as reduction in cell viability; type: cell-based, Canis lupus familiaris; set-up: concentration or dose not given beside the values; settings: dog
[9] = Ratio of apparent permeability from basolateral to apical side in MDCK cells to apparent permeability from basolateral to apical side in human Caco2 cells; type: ADME, cell-based; settings: caco-2
[10] = Permeability ratio, ratio of permeability from apical to basolateral side over basolateral to apical side in human Caco2 cells at 50 uM over 2 hrs by isocratic reverse phase HPLC method; type: ADME, cell-based; settings: caco-2, 2 h
[11] = Apparent permeability from apical to basolateral side in MDCK cells at 50 uM over 2 hrs by isocratic reverse phase HPLC method; type: ADME, cell-based, Canis lupus familiaris; settings: dog
MDCK [12] = experiment: Increase in permeability of lucifer yellow dye across MDCK cells; type: functional, cell-based; settings: Canis lupus familiaris
MDCK [13] = experiment: Permeability ratio, ratio of permeability from apical to basolateral side over basolateral to apical side in MDCK cells at 50 uM over 2 hrs by isocratic reverse phase HPLC method; type: ADME, cell-based, Canis lupus familiaris; settings: dog
[14] = as §1; type: ADME, cell-based, Canis lupus familiaris; settings: dog, MDCK

| Structure (SMILES) | Papp B→A at 2 h, 50 µM [1] | Papp A→B at 2 h, 50 µM [2] | efflux ratio at 2 h, 50 µM [3] | Ratio (MDCK [4]) | Ratio [5] | Papp B→A at 2 h, 50 µM [7] | Ratio [9] | Ratio [10] | Papp A→B at 2 h, 50 µM [11] | Ratio (MDCK [13]) | efflux ratio at 2 h, 50 µM [14] | Activity (Caco-2) | Activity [6] | Activity (MDCK [8]) | Activity (MDCK [12]) |
| --- | --- | --- | --- | --- | --- | --- | --- | --- | --- | --- | --- | --- | --- | --- | --- |
| CCOC(=O)c1ccc(/C=C2\CNC/C(=C\c3ccc(C(=O)OCC)cc3)C2=O)cc1 | 0.99 ×10⁻⁶ cm/s | 2.82 ×10⁻⁶ cm/s | 0.35 |  | 0.96 | 0.99 ×10⁻⁶ cm/s | 1 | 2.85 | 2.7 ×10⁻⁶ cm/s | 2.73 | 0.37 | inactive | Non-toxic | 4% | Active |
| O=C(/C=C/c1ccccc1)c1ccccc1 [CHALCONE] | 1.26 ×10⁻⁶ cm/s | 2.89 ×10⁻⁶ cm/s | 0.36 |  | 1.33 | 1.05 ×10⁻⁶ cm/s | 1.2 | 2.75 | 3.84 ×10⁻⁶ cm/s | 3.05 | 0.33 | inactive | Non-toxic | 4% | Active |
| CCOP(=O)(OCC)N1C/C(=C\c2cc(OC)c(OC)c(OC)c2)C(=O)/C(=C/c2cc(OC)c(OC)c(OC)c2)C1 | 50.3 ×10⁻⁶ cm/s | 28.5 ×10⁻⁶ cm/s | 0.31 |  | 3.68 | 8.82 ×10⁻⁶ cm/s | 5.73 | 3.23 | 105 ×10⁻⁶ cm/s | 2.08 | 0.48 | inactive | Non-toxic | 4% | Active |
| CCOP(=O)(OCC)N1C/C(=C\c2ccc(OC)c(OC)c2)C(=O)/C(=C/c2ccc(OC)c(OC)c2)C1 | 27.7 ×10⁻⁶ cm/s | 54.7 ×10⁻⁶ cm/s | 0.15 |  | 1.14 | 8.17 ×10⁻⁶ cm/s | 3.39 | 6.7 | 62.3 ×10⁻⁶ cm/s | 2.25 | 0.44 | inactive | Non-toxic | 4% | Active |
| COc1ccccc1/C=C1\CNC/C(=C\c2ccccc2OC)C1=O | 13.9 ×10⁻⁶ cm/s | 32.5 ×10⁻⁶ cm/s | 0.32 |  | 0.88 | 10.4 ×10⁻⁶ cm/s | 1.34 | 3.13 | 28.7 ×10⁻⁶ cm/s | 2.06 | 0.48 | inactive | Non-toxic | 4% | Active |
| O=C1/C(=C/c2ccccc2F)CNC/C1=C\c1ccccc1F | 0.36 ×10⁻⁶ cm/s | 3.53 ×10⁻⁶ cm/s | 0.17 |  | 1 | 0.6 ×10⁻⁶ cm/s | 0.6 | 5.88 | 3.54 ×10⁻⁶ cm/s | 9.83 | 0.1 | inactive | Non-toxic | 4% | Active |
| COc1ccc(/C=C2\CNC/C(=C\c3ccc(OC)c(OC)c3)C2=O)cc1OC | 8.7 ×10⁻⁶ cm/s | 14.4 ×10⁻⁶ cm/s | 0.29 |  | 1.54 | 4.12 ×10⁻⁶ cm/s | 2.11 | 3.5 | 22.2 ×10⁻⁶ cm/s | 2.55 | 0.39 | inactive | Non-toxic | 4% | Active |

Further lines, with some results ahead:

| Papp B→A at 2 h, 50 µM [1] | Papp A→B at 2 h, 50 µM [2] | efflux ratio at 2 h, 50 µM [3] | Ratio (MDCK [4]) | Ratio [5] | Papp B→A at 2 h, 50 µM [7] | Ratio [9] | Ratio [10] | Papp A→B at 2 h, 50 µM [11] | Ratio (MDCK [13]) | efflux ratio at 2 h, 50 µM [14] | Structure (SMILES) | Activity (Caco-2) | Activity [6] | Activity (MDCK [8]) | Activity (MDCK [12]) |
| --- | --- | --- | --- | --- | --- | --- | --- | --- | --- | --- | --- | --- | --- | --- | --- |
| 15.9 ×10⁻⁶ cm/s | 8.42 ×10⁻⁶ cm/s | 0.83 | 0.81 | 2.34 | 7.02 ×10⁻⁶ cm/s | 2.27 | 1.2 | 19.7 ×10⁻⁶ cm/s | 1.24 |  | CN(C)c1ccc(/C=C/C(=O)/C=C/c2ccc(N(C)C)cc2)cc1 | inactive | Non-toxic | 4% | Active |
| 6.28 ×10⁻⁶ cm/s | 23.4 ×10⁻⁶ cm/s | 0.31 |  | 0.63 | 7.22 ×10⁻⁶ cm/s | 0.87 | 3.24 | 14.7 ×10⁻⁶ cm/s | 2.34 | 0.43 | COc1cccc(/C=C2\CNC/C(=C\c3cccc(OC)c3OC)C2=O)c1OC | inactive | Non-toxic | 4% | Active |
| 6.53 ×10⁻⁶ cm/s | 15.4 ×10⁻⁶ cm/s | 0.38 |  | 1.42 | 5.83 ×10⁻⁶ cm/s | 1.12 | 2.64 | 21.9 ×10⁻⁶ cm/s | 3.35 | 0.3 | O=C1/C(=C/c2cccc(O)c2)CNC/C1=C\c1cccc(O)c1 | inactive | Non-toxic | 4% | Active |
